In patent publication US20250177448A1, “NEW USE OF PEG-PHOSPHOLIPID MOLECULES” (ICOAT MEDICAL AB, priority 2022, published 2025):

Key:
[1] = tested on: porcine kidney transplant, ischemia reperfusion injury; test: Porcine allogeneic survival transplantation model (SM); format: in vivo, pig; conditions: for IFNγ level / IL-1α level / IL-1β level / IL-2 level / IL-4 level / IL-6 level / IL-10 level / IL-12 level / IL-18 level: vs untreated control kidneys
Procedure: During and after surgery, systemic blood was collected for up to 4 days and analyzed for creatinine, sodium, potassium and phosphate (Section for Clinical Chemistry, Uppsala University Hospital).
Multiplex protein analyses using multiplex Luminex xMAP Technology (Millipore Corporation, Billerica, MA, USA) were performed using a porcine specific kit for 12 cytokines/chemokines: Interferon-gamma (INFγ), Interleukins IL-1b, IL-2, IL-1a, IL-1RA, IL-4, IL-6, IL-10, IL-18, IL-8, IL-12, and TNF. Plasma was incubated with agent-specific-coloured magnetic beads, thereafter with detection antibodies and streptavidin-phycoerythrin (Millipore Corporation). Plates were measured using a MAGPIX instrument (Luminex Corporation, Austin, TX, USA). Raw data [median fluorescence intensity (MFI)] was translated into protein concentration (ng/ml) using a standard curve.
These studies were approved by the Ethics Committee for Animal Experimentation, Uppsala, Sweden, Dnr C123/14. For each of these studies (SM and CLSM) five donor pigs and 10 recipient pigs of both sexes were used. All pigs were certified SPF pigs (Yorkshire×Hampshire) and bred at Lövsta University herd, SLU, Sweden. At arrival to SLU the pigs were 8 weeks old.
For the SM study, the pigs were selected after typing for Swine Leucocyte Antigen (SLA) class 1 in the following manner: the donor pigs were obtained from two litters and not related to any of the recipients. The recipient pigs were siblings, matched in pairs according to SLA class 1 (see below). For the CLSM study, all recipient pigs were siblings and not related to the donors, but these the pigs were not SLA-typed.
SM study: the kidneys were retrieved en bloc using the same procedure as in the ANSM study. Also here, the kidneys were exposed to an initial warm ischemia of less than 5 minutes. […] Post preservation, the kidneys were randomized to receive either PEG-phospholipid (15 mL, 2 mg/mL) or HTK solution at +4° C. by injection through the renal artery after clamping of the renal vein. During a 40-60 min incubation, the renal artery and vein were maintained clamped. The SM study comprised 6 kidneys treated with PEG-phospholipid and 4 control kidneys.
The recipient pigs underwent allogeneic single kidney transplantation. Through a 15-20 cm abdominal midline incision, the iliac vessels in the right iliac fossa were identified and carefully mobilized. The distal segment of the vena cava as well as the iliac artery (from its emergence from the aorta) were mobilized, sealing the surrounding lymphoid tissue. The renal graft was thereafter placed in the right iliac fossa in the proximity of the iliac vessels. The renal vein and artery were trimmed, and subsequently anastomosed in an end-to-side fashion to the recipient's right iliac artery and distal vena cava using a polypropylene 7/0 running suture (PROLENE®, Ethicon, US). The ureters were implanted by extravesical ureteroneocystostomy to the top of the bladder by 6-0 polydioxanone suture (PDS®, Ethicon, US). Thereafter, bilateral nephrectomy of the native kidneys was performed. The midline incision was closed by running a 2/0 polyglactin (VICRYL®, Ethicon, US) fascia suture and skin clips. No anticoagulants were given to the recipient. After the inguinal transplantation was completed, urine was collected directly from the bladder by cystocentesis, showing that all of the transplanted kidneys had started to produce urine soon after reperfusion. By using a urine stick the sample was analyzed for proteinurea and hematuria. The mean duration of the surgery was 2.5 hours (1.75-3.25 hours).
During and after transplantation, EDTA blood was collected from the local renal vein at 0, 15, 30 and 60 min after reperfusion, and systemic blood samples were obtained at 1, 2, 3, and 4 days after surgery. […]

[2] = tested on: porcine kidney transplant, ischemia reperfusion injury
Procedure: TAT was measured in both human and porcine plasma using an anti-human thrombin monoclonal antibody was used for capturing and an HRP-coupled anti-human antithrombin (AT) antibody was used for detection (Enzyme Research Laboratories, South Bend, IN, USA).
In addition, TNF, IL-1b, IL-6 and tissue factor (TF) were quantified in plasma by immunoassays using a GyroLab workstation (Gyros, Uppsala, Sweden), and the presence of these compounds, as well as IFNγ in biopsies (below) were verified by PCR.
Paraffin sections of porcine kidney tissue were cut (3-5 μm), deparaffinized in xylene and rehydrated with a graded series of ethanol and distilled water. For IHC staining a heat-induced antigen retrieval was performed by boiling the sections in sodium citric buffer (pH 6), the sections were blocked with 10% normal goat serum (Jackson Immunoresearch) before primary antibody incubation: anti-MAC (abcam ab66768); anti-C3b alpha chain (Bioss bs-4873R); anti-C4d (abcam ab64157), anti-C5aR (Acris AP06509PU-N), anti-HO1 (abcam ab52947), anti-CSE (abnova H00001491-M01), anti-Nitrotyrosine (Merck Millipore AB5411), anti-NOS2 (Santa Cruz sc-651), detection was performed by DAKO Real
Detection System alkaline phosphatase red (Dako). The sections were counterstained with Mayer's hematoxylin (Sigma #51275). Control staining was done with a nonspecific rabbit IgG (Dako #X0936). The slides were visualized using a Zeiss Axio Imager A1 microscope with a ×10 objective (100-fold magnification). Intensity of staining was quantified on multiple randomly selected 800,000 μm^2 sections using the AxioVision 4.8 software (Zeiss). Data are presented as mean densitometric sum red.

[3] = 60 min following transplantation
[4] = 4 days following transplantation
[5] = kidney vein, 5 min, in most cases
[6] = up to 4 days post-transplantation
[7] = ANSM biopsies, electron microscopy, vs matched individual controls
[8] = ANSM, 1, 60 and 360 min, treated vs non-treated kidneys
[9] = ANSM, 6 h observation, treated vs untreated kidneys
[10] = ANSM, treated vs untreated kidneys

With “N-(methylpolyoxyethylene oxycarbonyl)-1,2-dipalmitoyl-sn-glycero-3-phosphoethanolamine [PEG-phospholipid]” the “binding of C3b in renal biopsies” value ([1]; 5 min and necropsy day 4) was “lower binding”, the IFNγ level [1, 3] was “not any significant difference” and the IL-1α level [1, 3] was “not any significant difference”. For the same substance, the IL-1β level [1, 3] was “not any significant difference”, the IL-2 level [1, 3] was “not any significant difference” and the IL-4 level [1, 3] was “not any significant difference”. For the same substance, the IL-6 level [1, 3] was “not any significant difference”, the IL-10 level [1, 3] was “not any significant difference” and the IL-12 level [1, 3] was “not any significant difference”. For the same substance, the IL-18 level [1, 3] was “not any significant difference”, the IFNγ level [1, 4] was “significantly lower levels” and the IL-1α level [1, 4] was “significantly lower levels”. For the same substance, the IL-1β level [1, 4] was “significantly lower levels”, the IL-2 level [1, 4] was “significantly lower levels” and the IL-4 level [1, 4] was “significantly lower levels”. The IL-6 level [1, 4] was “significantly lower levels”, the IL-10 level [1, 4] was “significantly lower levels” and the IL-12 level [1, 4] was “significantly lower levels”. The IL-18 level [1, 4] was “significantly lower levels”, the IL-1RA protein level ([1]; after 96 hours) was “unaffected” and the IL-8 protein level ([1]; after 96 hours) was “unaffected”. For the same substance, the IL-1a protein level [1, 5] was “suppressed”, the IL-12 protein level [1, 5] was “suppressed” and the creatinine levels post-transplantation ([1]; recipients' blood, 24-96 hours, vs control grafts) was “significantly lower”. The “C3a in blood samples” value [1, 6] was “substantially lower”, the “TAT in blood samples” value [1, 6] was “substantially lower” and the “sC5b-9 in blood samples” value [1, 6] was “substantially lower”. For the same substance, the “glomerular NETosis (renal NET deposition)” value [2, 7] was “marked decrease”, the “tubular NETosis (renal NET deposition)” value [2, 7] was “marked decrease” and the “HO-1 staining in biopsies” value [2, 8] was “No difference was found”. The “INOS staining in biopsies” value [2, 8] was “No difference was found”, the “nitrotyrosine staining in biopsies” value [2, 8] was “No difference was found” and the “C3a in renal vein blood” value [2, 9] was “substantially lower”. For the same substance, the “FXIla-C1INH in renal vein blood” value [2, 9] was “substantially lower”, the “TAT in renal vein blood” value [2, 9] was “substantially lower” and the “sC5b-9 in renal vein blood” value [2, 9] was “substantially lower”. For the same substance, the “IL-1β mRNA expression in kidney biopsies” value ([2]; ANSM, RT-PCR, vs controls) was “lower”, the “IL-6 mRNA expression in kidney biopsies” value ([2]; ANSM, RT-PCR, vs controls) was “lower” and the “TF mRNA expression in kidney biopsies” value ([2]; ANSM, RT-PCR, vs controls) was “lower”. For the same substance, the “TNF mRNA expression in kidney biopsies” value ([2]; ANSM, RT-PCR, vs controls) was “lower”, the “deposition of NETs in all locations (glomerular, tubular, vascular)” value ([2]; ANSM, n=6) was “highly significant reduction” and the “binding of C3b in kidney biopsies” value [2, 10] was “significantly lower binding”. The “binding of C4d in kidney biopsies” value [2, 10] was “tendency of a lower binding”, the “IL-1β plasma concentration in the renal vein” value ([2]; ANSM, vs controls) was “lower” and the “IL-6 plasma concentration in the renal vein” value ([2]; ANSM, vs controls) was “lower”. The “TF plasma concentration in the renal vein” value ([2]; ANSM, vs controls) was “lower”, the “TNF plasma concentration in the renal vein” value ([2]; ANSM, vs controls) was “lower” and the “time within which fluorescence migrated from the glomeruli to the tubular system” value ([2]; pig, in vivo) was at most 6 h.
